Key:
[1] = test system: K-RAS wild-type NSCLC cells; experiment: Gene/protein expression after Methotrexate treatment, K-RAS wild-type cells; format: cell-based
Protocol: (§1) Finally, expression of genes/proteins related to folate metabolism and cell cycle progression were examined in K-RAS mutant and K-RAS wild-type NSCLC cells with Methotrexate treatment and K-RAS overexpression or knockdown. Briefly, A549 cells were treated with Methotrexate at a concentration of 0.1 μM. 72 hours after treatment, total RNA was extracted from treated and untreated cells. RT-PCR was then performed on extracted RNA to determine gene expression of K-RAS, Dihydrofolate Reductase (DHFR), Thymidylate Synthase (TYMS) and E2F1. Gene expression was normalized to […] as an internal control.

A549 cells = experiment: RT-PCR gene/protein expression after Methotrexate treatment, K-RAS mutant cells; format: cell-based; settings: 0.1 μM, 72 hours after treatment, normalized to Beta-2-Macroglobulin
Protocol: as §1

H460 cells = experiment: H460 tumors implanted in mice, cleaved caspase-3 staining; format: in vivo; settings: H460 tumors approx. 500 mg; 130 mg/kg Q4Dx3 IP; harvested 10 days after treatment; cleaved caspase-3 stain
Description: Tumors were then harvested 10 days after treatment, fixed in formalin and stained for cleaved caspase-3. Next, bright-field pictures were taken at 40× (see, FIG. 4).

[2] = test system: K-RAS wild-type (Calu-3, NCI-H650 & NC-H661) NSCLC cells; experiment: Cyquant Direct proliferation assay, K-RAS wild-type NSCLC cells; format: cell-based; settings: K-RAS wild-type cells Calu-3, NCI-H650 & NC-H661; 0-10 μM; 72 hours
Protocol: (§2) Additionally, a variety of NSCLC cell lines that were K-RAS mutant (A549, NCI-H460 & NCI-H23), K-RAS mutant/amplified (NCI-H727 & NCI-H2009) and K-RAS wild-type (Calu-3, NCI-H650 & NC-H661) NSCLC cells were plated in 96 well plates treated and treated 24 hours later with multiple concentrations of Methotrexate (0-10 μM). After an additional 72 hours cells were assayed for proliferation using the Invitrogen Cyquant Direct™ proliferation assay. IC50 (inhibitory concentration that kills 50% of cells) was determined using graphpad software. Cells were treated in triplicate and cell numbers were calculated as percent untreated control.

[3] = test system: K-RAS mutant/amplified (NCI-H727 & NCI-H2009) NSCLC cells; experiment: Cyquant Direct proliferation assay, K-RAS mutant/amplified NSCLC cells; format: cell-based; settings: 0-10 μM, 72 hours
Protocol: as §2

[4] = test system: K-RAS mutant (A549, NCI-H460 & NCI-H23) NSCLC cells; experiment: Cyquant Direct proliferation assay, K-RAS mutant NSCLC cells; format: cell-based; settings: 0-10 μM, 72 hours
Protocol: as §2

## CN(Cc1cnc2nc(N)nc(N)c2n1)c1ccc(C(=O)N[C@@H](CCC(=O)O)C(=O)O)cc1 [Methotrexate]
[1]
  Expression of DHFR, TS, E2F-1, phosphorylated Rb and mutant K-RAS decreased: not
A549 cells
  Expression of DHFR, TS, E2F-1, phosphorylated Rb and mutant K-RAS: decreased
H460 cells
  sensitivity (responsiveness) of tumors with K-Ras mutant cells: sensitive
[2]
  sensitivity to Methotrexate (proliferation): not sensitive
[3]
  sensitivity to Methotrexate (proliferation): sensitive
[4]
  sensitivity to Methotrexate (proliferation): sensitive

Reference: patent US20130225424A1, “METHODS FOR DETERMINING RESPONSIVENESS TO A DRUG BASED UPON DETERMINATION OF RAS MUTATION AND/OR RAS AMPLIFICATION” (Targeted Molecular Diagnostics, LLC, priority 2010, published 2013)
